According to US8217055B2, “Pyrido-pyrazine derivatives useful as herbicidal compounds” (Syngenta Crop Protection LLC, priority 2006, dated 2012):

Tests used:
Type in all cases: in vivo
Amaranthus retroflexus [1] = experiment: Example B1 herbicidal action, post-emergence, seed trays in climatic chamber (score 10=total damage to plant, 0=no damage to plant); details: Application post-emergence, 1000 g/ha, evaluated after 9 days
Method: (§1) Seeds of a variety of test species were sown in sterilised standard soil in seed trays each having 96 cells. After cultivation for 8 to 9 days cultivation (post-emergence) under controlled conditions in a climatic chamber (cultivation at 23/17° C., day/night; 13 hours light; 50-60% humidity), the plants were treated with an aqueous spray solution of 1000 mg/l of the active ingredient dissolved in 10% DMSO (dimethyl sulfoxide, CAS RN 67-68-5) as a solvent, equivalent to 1000 g/ha. The plants were grown in the climatic chamber after application at (24/19° C., day/night; 13 hours light; 50-60% humidity) and watered twice daily. After 9 days until the test was evaluated (10=total damage to plant, 0=no damage to plant)

Nasturtium officinale = experiment: as above; details: Application post-emergence, 1000 g/ha, evaluated after 9 days
Method: as §1

Solanum nigrum [2] = experiment: as above; details: Application post-emergence, 1000 g/ha, evaluated after 9 days
Method: as §1

Stellaria media = experiment: as above; details: Application post-emergence, 1000 g/ha, evaluated after 9 days
Method: as §1

Amaranthus retroflexus [3] = experiment: Example B2 herbicidal action, post-emergence, pots in glasshouse, evaluated after 13 days (10=total damage to plant; 0=no damage to plant)
Summary of the method: (§2)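 Evaluation took place 13 days post-spray. Treatment used an acetone/water (50:50), 0.5% Tween 20 formulation applied to 8-day-old potted plants, held at 24/16 °C with 14 h light, 65% humidity and twice-daily watering.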

Echinochloa crus-galli = experiment: as above
Summary of the method: as §2

Ipomea hederaceae = experiment: as above
Summary of the method: as §2

Setaria faberi = experiment: as above
Summary of the method: as §2

Solanum nigrum [4] = experiment: as above
Summary of the method: as §2

CC(C)(C)C(=O)Oc1c(-c2c(F)ccc(F)c2Cl)c(=O)n(CCCCCl)c2nccnc12 [C4]
AMARE (damage to plant) (Amaranthus retroflexus [1]): 0 | NAAOF (damage to plant) (Nasturtium officinale): 0 | SOLNI (damage to plant) (Solanum nigrum [2]): 4 | STEME (damage to plant) (Stellaria media): 1

CC(C)C(=O)Oc1c(-c2cc(C(F)(F)F)ccc2Cl)c(=O)n(CC(F)F)c2nccnc12 [A7]
AMARE (damage to plant) (Amaranthus retroflexus [1]): 4 | NAAOF (damage to plant) (Nasturtium officinale): 7 | SOLNI (damage to plant) (Solanum nigrum [2]): 5 | STEME (damage to plant) (Stellaria media): 8

Cc1ccc(Cl)c(-c2c(OC(=O)C(C)(C)C)c3nccnc3n(CC(F)F)c2=O)c1F [A5]
AMARE (damage to plant) (Amaranthus retroflexus [1]): 4 | NAAOF (damage to plant) (Nasturtium officinale): 5 | SOLNI (damage to plant) (Solanum nigrum [2]): 2 | STEME (damage to plant) (Stellaria media): 7

CC(C)C(=O)Oc1c(-c2c(F)ccc(F)c2Cl)c(=O)n(CC(F)F)c2nccnc12 [A3]
AMARE (damage to plant) (Amaranthus retroflexus [1]): 6 | NAAOF (damage to plant) (Nasturtium officinale): 7 | SOLNI (damage to plant) (Solanum nigrum [2]): 5 | STEME (damage to plant) (Stellaria media): 9

O=c1c(-c2cccc(C(F)(F)F)c2Cl)c(O)c2nccnc2n1CC(F)F [B1]
AMARE (damage to plant) (Amaranthus retroflexus [1]): 0 | NAAOF (damage to plant) (Nasturtium officinale): 6 | SOLNI (damage to plant) (Solanum nigrum [2]): 6 | STEME (damage to plant) (Stellaria media): 5

CC(C)(C)C(=O)Oc1c(-c2c(F)ccc(F)c2Cl)c(=O)n(CCC(F)(F)F)c2nccnc12 [C6]
AMARE (damage to plant) (Amaranthus retroflexus [1]): 0 | NAAOF (damage to plant) (Nasturtium officinale): 0 | SOLNI (damage to plant) (Solanum nigrum [2]): 1 | STEME (damage to plant) (Stellaria media): 3

CC(C)(C)C(=O)Oc1c(-c2cc(C(F)(F)F)ccc2Cl)c(=O)n(CC(F)F)c2nccnc12 [A8]
AMARE (damage to plant) (Amaranthus retroflexus [1]): 6 | NAAOF (damage to plant) (Nasturtium officinale): 7 | SOLNI (damage to plant) (Solanum nigrum [2]): 6 | STEME (damage to plant) (Stellaria media): 7

CC(C)(C)C(=O)Oc1c(-c2ccccc2OC(F)(F)F)c(=O)n(CC(F)F)c2nccnc12 [A1]
AMARE (damage to plant) (Amaranthus retroflexus [1]): 0 | NAAOF (damage to plant) (Nasturtium officinale): 8 | SOLNI (damage to plant) (Solanum nigrum [2]): 6 | STEME (damage to plant) (Stellaria media): 7

O=c1c(-c2c(F)ccc(F)c2Cl)c(O)c2nccnc2n1CC(F)F [B2, 7-(2-chloro-3,6-difluoro-phenyl)-5-(2,2-difluoro-ethyl)-8-hydroxy-5H-pyrido[2,3-b]pyrazin-6-one]
AMARE (damage to plant) (Amaranthus retroflexus [1]): 6 | NAAOF (damage to plant) (Nasturtium officinale): 8 | SOLNI (damage to plant) (Solanum nigrum [2]): 5 | STEME (damage to plant) (Stellaria media): 8

CC(C)(C)C(=O)Oc1c(-c2c(F)ccc(F)c2Cl)c(=O)n(CCC(F)(F)C(F)(F)F)c2nccnc12 [C7]
AMARE (damage to plant) (Amaranthus retroflexus [1]): 0 | NAAOF (damage to plant) (Nasturtium officinale): 0 | SOLNI (damage to plant) (Solanum nigrum [2]): 3 | STEME (damage to plant) (Stellaria media): 0

Cc1ccc(Cl)c(-c2c(OC(=O)C(C)C)c3nccnc3n(CC(F)F)c2=O)c1F [A6]
AMARE (damage to plant) (Amaranthus retroflexus [1]): 5 | NAAOF (damage to plant) (Nasturtium officinale): 7 | SOLNI (damage to plant) (Solanum nigrum [2]): 0 | STEME (damage to plant) (Stellaria media): 7

CC(C)(C)C(=O)Oc1c(-c2c(F)ccc(Br)c2Cl)c(=O)n(CC(F)F)c2nccnc12 [A19]
AMARE damage score (10=total damage to plant; 0=no damage to plant) (Amaranthus retroflexus [3]; rate 1000 g/ha): 10 | ECHCG damage score (10=total damage to plant; 0=no damage to plant) (Echinochloa crus-galli; rate 1000 g/ha): 7 | IPOHE damage score (10=total damage to plant; 0=no damage to plant) (Ipomea hederaceae; rate 1000 g/ha): 9 | SETFA damage score (10=total damage to plant; 0=no damage to plant) (Setaria faberi; rate 1000 g/ha): 8 | SOLNI damage score (10=total damage to plant; 0=no damage to plant) (Solanum nigrum [4]; rate 1000 g/ha): 10

O=c1c(-c2cc(F)ccc2Cl)c(O)c2nccnc2n1CC(F)F [B7]
AMARE damage score (10=total damage to plant; 0=no damage to plant) (Amaranthus retroflexus [3]; rate 1000 g/ha): 10 | ECHCG damage score (10=total damage to plant; 0=no damage to plant) (Echinochloa crus-galli; rate 1000 g/ha): 7 | IPOHE damage score (10=total damage to plant; 0=no damage to plant) (Ipomea hederaceae; rate 1000 g/ha): 9 | SETFA damage score (10=total damage to plant; 0=no damage to plant) (Setaria faberi; rate 1000 g/ha): 7 | SOLNI damage score (10=total damage to plant; 0=no damage to plant) (Solanum nigrum [4]; rate 1000 g/ha): 9

CC(C)(C)C(=O)Oc1c(-c2c(F)cccc2Cl)c(=O)n(CC(F)F)c2nccnc12 [A34]
AMARE damage score (10=total damage to plant; 0=no damage to plant) (Amaranthus retroflexus [3]; rate 1000 g/ha): 10 | ECHCG damage score (10=total damage to plant; 0=no damage to plant) (Echinochloa crus-galli; rate 1000 g/ha): 4 | IPOHE damage score (10=total damage to plant; 0=no damage to plant) (Ipomea hederaceae; rate 1000 g/ha): 9 | SETFA damage score (10=total damage to plant; 0=no damage to plant) (Setaria faberi; rate 1000 g/ha): 6 | SOLNI damage score (10=total damage to plant; 0=no damage to plant) (Solanum nigrum [4]; rate 1000 g/ha): 10

CC(C)C(=O)Oc1c(-c2c(F)ccc(F)c2Cl)c(=O)n(CC=C(Cl)Cl)c2nccnc12 [C14]
AMARE damage score (10=total damage to plant; 0=no damage to plant) (Amaranthus retroflexus [3]; rate 1000 g/ha): 8 | ECHCG damage score (10=total damage to plant; 0=no damage to plant) (Echinochloa crus-galli; rate 1000 g/ha): 0 | IPOHE damage score (10=total damage to plant; 0=no damage to plant) (Ipomea hederaceae; rate 1000 g/ha): 1 | SETFA damage score (10=total damage to plant; 0=no damage to plant) (Setaria faberi; rate 1000 g/ha): 0 | SOLNI damage score (10=total damage to plant; 0=no damage to plant) (Solanum nigrum [4]; rate 1000 g/ha): 8

O=c1c(-c2cc(C(F)(F)F)ccc2Cl)c(O)c2nccnc2n1CC(F)F [B3]
AMARE damage score (10=total damage to plant; 0=no damage to plant) (Amaranthus retroflexus [3]; rate 250 g/ha): 10 | ECHCG damage score (10=total damage to plant; 0=no damage to plant) (Echinochloa crus-galli; rate 250 g/ha): 7 | IPOHE damage score (10=total damage to plant; 0=no damage to plant) (Ipomea hederaceae; rate 250 g/ha): 8 | SETFA damage score (10=total damage to plant; 0=no damage to plant) (Setaria faberi; rate 250 g/ha): 7 | SOLNI damage score (10=total damage to plant; 0=no damage to plant) (Solanum nigrum [4]; rate 250 g/ha): 9

COc1ccc(OC(F)(F)F)cc1-c1c(OC(=O)C(C)C)c2nccnc2n(CC(F)F)c1=O [A23]
AMARE damage score (10=total damage to plant; 0=no damage to plant) (Amaranthus retroflexus [3]; rate 1000 g/ha): 10 | ECHCG damage score (10=total damage to plant; 0=no damage to plant) (Echinochloa crus-galli; rate 1000 g/ha): 8 | IPOHE damage score (10=total damage to plant; 0=no damage to plant) (Ipomea hederaceae; rate 1000 g/ha): 9 | SETFA damage score (10=total damage to plant; 0=no damage to plant) (Setaria faberi; rate 1000 g/ha): 9 | SOLNI damage score (10=total damage to plant; 0=no damage to plant) (Solanum nigrum [4]; rate 1000 g/ha): 10

O=C1c2nccnc2N(CC(F)(F)F)C(=O)C1c1c(F)ccc(F)c1Cl (centres unmarked) [D1]
AMARE damage score (10=total damage to plant; 0=no damage to plant) (Amaranthus retroflexus [3]; rate 1000 g/ha): 10 | ECHCG damage score (10=total damage to plant; 0=no damage to plant) (Echinochloa crus-galli; rate 1000 g/ha): 5 | IPOHE damage score (10=total damage to plant; 0=no damage to plant) (Ipomea hederaceae; rate 1000 g/ha): 10 | SETFA damage score (10=total damage to plant; 0=no damage to plant) (Setaria faberi; rate 1000 g/ha): 6 | SOLNI damage score (10=total damage to plant; 0=no damage to plant) (Solanum nigrum [4]; rate 1000 g/ha): 10

CC(C)(C)C(=O)Oc1c(-c2ccc(C(F)(F)F)cc2Br)c(=O)n(CC(F)F)c2nccnc12 [A10]
AMARE damage score (10=total damage to plant; 0=no damage to plant) (Amaranthus retroflexus [3]; rate 1000 g/ha): 10 | ECHCG damage score (10=total damage to plant; 0=no damage to plant) (Echinochloa crus-galli; rate 1000 g/ha): 4 | IPOHE damage score (10=total damage to plant; 0=no damage to plant) (Ipomea hederaceae; rate 1000 g/ha): 5 | SETFA damage score (10=total damage to plant; 0=no damage to plant) (Setaria faberi; rate 1000 g/ha): 3 | SOLNI damage score (10=total damage to plant; 0=no damage to plant) (Solanum nigrum [4]; rate 1000 g/ha): 9

COc1ccc(Br)cc1-c1c(O)c2nccnc2n(CC(F)F)c1=O [B12]
AMARE damage score (10=total damage to plant; 0=no damage to plant) (Amaranthus retroflexus [3]; rate 1000 g/ha): 9 | ECHCG damage score (10=total damage to plant; 0=no damage to plant) (Echinochloa crus-galli; rate 1000 g/ha): 6 | IPOHE damage score (10=total damage to plant; 0=no damage to plant) (Ipomea hederaceae; rate 1000 g/ha): 6 | SETFA damage score (10=total damage to plant; 0=no damage to plant) (Setaria faberi; rate 1000 g/ha): 6 | SOLNI damage score (10=total damage to plant; 0=no damage to plant) (Solanum nigrum [4]; rate 1000 g/ha): 9
